According to paper PMC5218480 (PLoS ONE, 2017):

Test system: MV-4-11 cells
Assay: Gene expression microarray analysis (Affymetrix PrimeView) and GSEA
Type: cell-based, human
Details: ProbeSet 11754607_s_at; LIST B

Compound: Nc1ncn([C@@H]2O[C@H](CO)[C@@H](O)[C@H]2O)c(=O)n1 [azacitidine]
- RFU, HSP90B1 /// MIR3652: 2647.82 RFU
